Data published in US20220401408A1, “COMPOSITIONS AND METHODS FOR RESCUING RETINAL AND CHOROIDAL STRUCTURE AND FUNCTION” (AUCKLAND UNISERVICES LIMITED, priority 2019, published 2022).

Test system: GFAP, Connexin43, Iba-1
Experiment: Immunohistochemical labelling of GFAP, Iba-1 and Connexin43 in hyperglycemic rat retina
Type: in vivo, SD rats (spontaneously hyperglycemic strain)
Details: dosed daily for 14 days, 8 weeks of age
Protocol: Ten rats per group were the selected (10 normal SD and 10 hyperglycemic) grown to 5 weeks of age and assessed using OCT and ERG. The hyperglycemic rat group was then split into two subgroups of five, with one subgroup fed tonabersat once daily for 14 days from weeks 5 to 7 at a low dose level of 0.28 mg/kg in 0.5 g peanut butter, with the other subgroup fed 0.5 g peanut butter only. All animals were assessed again using ERG and OCT at 8 weeks of age before euthanizing animals and removing the eyes for immunohistochemical analysis. Data groups were randomized prior to the statistical comparison. In summary, normal SD and hyperglycemic rats were analyzed with OCT and ERG at 5 weeks of age; the hyperglycemic rats were then split into two groups and fed the vehicle or tonabersat for 14 days during weeks 6 and 7 of age. At week 8, animals were again assessed with ERG and OCT and tissues collected for immunohistochemical analysis. Four tonabersat-treated rats were, however, left until 3 months of age before final ERG and OCT and tissue collection.
Tissue Collection and Processing—At the end of the final OCT recording rats was deeply anesthetized using a combination of ketamine (75 mg/kg, Parnell Technologies, New Zealand) and domitor (0.5 mg/kg, Pfizer, New Zealand). Animals were perfused transcardially with saline for 2-3 min followed by 30 min perfusion with 4% paraformaldehyde in a 0.1 M phosphate buffer, pH 7.4 (PB). Eyes were dissected from the orbit and the eyecups further immersion fixed in 4% paraformaldehyde, 30 min before washing in PB. Tissues were then cryo-protected by taking them though 10% and 20% sucrose/PB solutions at room temperature for 30 min each, before soaking in 30% sucrose/PB at 4° C. overnight. The tissue was then embedded in optimum cutting temperature compound (Sakura Finetek, Torrance, USA) for cryosectioning (16 μm section thickness) in the vertical plane using a Leica CM3050 S cryostat (Leica, Germany). Sections were collected on Superfrost Plus slides (Labserv, New Zealand) for immunohistochemical labelling. For the DR animals we collected spleen, pancreas, liver, heart and kidneys from randomly selected vehicle-injected animals (see supplementary information).
Immunohistochemical Labelling of Tissue Sections—Frozen tissue sections were air-dried at room temperature for 10-15 min and washed with 0.1 M PB. Sections were encircled with a PAP pen (Invitrogen, New Zealand) to form incubation wells and blocked with 6% normal goat serum or donkey serum (Invitrogen, USA), 1% bovine serum albumin (BSA) and 0.5% Triton X-100 in 0.1 M PB for 1 hour at room temperature. […]

[1] = significantly less than untreated, p<0.001

## CC(=O)c1ccc2c(c1)[C@H](NC(=O)c1ccc(F)c(Cl)c1)[C@H](O)C(C)(C)O2 [tonabersat, N-[(3S,4S)-6-acetyl-3-hydroxy-2,2-dimethyl-3,4-dihydrochromen-4-yl]-3-chloro-4-fluorobenzamide]
  inflammation (labeling for GFAP, Iba-1, Connexin43): reduced inflammation
[1]
  Connexin43 labelling, quantification: recovering to normal
  GFAP labelling, quantification: recovering to normal
  Iba-1 labelling, quantification: recovering to normal
